In patent US20260183253A1, “TREATING LIVER CANCERS WITH HYDROXYUREAMETHYL ACYLFULVENE” (Lantern Pharma Inc., priority 2023, published 2026):

Test system: liver cancer cell lines including SNU387, SNU475, SNU449, and HEPG2
Test: Cell viability, CellTiter-Fluor assay, 72 h treatment
Type: cell-based
Conditions: values shown only in FIG. 1
Procedure: Liver cancer cell lines including SNU387, SNU475, SNU449, and HEPG2, were obtained from the American Type Culture Collection (ATCC), ensuring standardized and reliable cell sources. […] Cells were seeded into 96-well plates at a density optimized for exponential growth, allowing sufficient space for cellular proliferation during the course of the experiment. Each well was seeded with an equal number of cells to ensure consistency across the experiment. Following seeding, cells were allowed to adhere and acclimatize for 24 hours at 37° C. in a humidified incubator with 5% CO2, maintaining optimal growth conditions. Once acclimated, the cells were treated with either a vehicle control (DMSO) or varying concentrations of LP-184. […]
Following the 72-hour treatment period, cell viability was assessed using the CellTiter-Fluor® assay from Promega, a sensitive fluorescence-based assay that quantifies the number of viable cells based on the presence of active cellular proteases. […]
The plates were then incubated for an additional 30 minutes at 37° C. to allow the enzymatic reaction to occur, resulting in the cleavage of the fluorogenic substrate by viable cells. […] The fluorescence signal was measured using a plate reader set to an excitation wavelength of 400 nm and an emission wavelength of 505 nm, parameters optimized for the GF-AFC substrate. […]

CC1=C(CN(O)C(N)=O)C2=C(C)C3(CC3)[C@@](C)(O)C(=O)C2=C1 [LP-184, (−)-hydroxyureamethyl acylfulvene]
IC50 (nM) against various liver cancer cell lines: nanomolar potency
